# Experimental data: paper PMC9450471 (Computational Biology and Chemistry, 2022)
# Experiment: in vitro
# Settings: African green monkey
row,SMILES,CC50
1,O=c1[nH]cnc2c([C@@H]3N[C@H](CO)[C@@H](O)[C@H]3O)c[nH]c12 [Forodesine],> 100 µM
2,CC(C)Nc1nc2cc(Cl)c(Cl)cc2n1[C@H]1O[C@@H](CO)[C@H](O)[C@@H]1O [Maribavir],> 100 µM
3,CC(C)C(=O)OC[C@H]1O[C@@H](n2ccc(NO)nc2=O)[C@H](O)[C@@H]1O [Molnupiravir],> 100 µM
4,COc1nc(N)nc2c1ncn2[C@@H]1O[C@H](CO)[C@@H](O)[C@@H]1O [Nelarabine],> 100 µM
5,CCC(CC)COC(=O)[C@H](C)N[P@](=O)(OC[C@H]1O[C@@](C#N)(c2ccc3c(N)ncnn23)[C@H](O)[C@@H]1O)Oc1ccccc1 [Remdesivir],> 100 µM
6,"CC(C)=CCNc1ncnc2c1ncn2[C@@H]1O[C@H](CO)[C@@H](O)[C@H]1O [Riboprine, N ^6-(2-Isopentenyl)adenosine]",> 100 µM
7,OC[C@H]1O[C@@H](n2cnc3c(N[C@@H]4CCOC4)ncnc32)[C@H](O)[C@@H]1O [Tecadenoson],> 100 µM
8,"Nc1ncnc2c1ncn2[C@@H]1O[C@H](CO)[C@@H](O)[C@@H]1O [Vidarabine, Arabinosyladenine]",> 100 µM
